Source: publication PMC6696198, “Thyroid Peroxidase Activity is Inhibited by Phenolic Compounds—Impact of Interaction” (Molecules, 2019)
“And” between values parts separate entries of the source, which are not always exact repeats. Equal values may be shown once. “Also recorded” adds a separate entry of the source. Read-outs that look alike come from different tables or passages of the source. Values belong to the compound of their own block, whether it stands above or below them.

What was measured:
[1] = ABTS radical scavenging (in vitro antioxidant capacity) assay; conditions: n = 9
Description: The ABTS radical scavenging activity was determined according to Re et al. with some modifications. 250 µL of ABTS solution was mixed with 10 µL of each pure polyphenols solutions (concentration 50 µg/mL) and measured at the wavelength 724 nm using a UV/Vis spectrophotometer (BioTek, Model Epoch2TC, Winooski, Vermont, VT, USA) after 15 min of incubation in room temperature. The inhibition percentage of ABTS discoloration was calculated using the following equation: AA=Ac−Ap/Ac×100% Where Ac—the absorbance of control, Ap—the absorbance of pure polyphenols solutions.

thyroid peroxidase (TPO) [2] = target: T1, thyroid peroxidase (TPO) (Sus scrofa, UniProt P09933); experiment: TPO inhibitory assay (guaiacol oxidation); format: biochemical, porcine; conditions: for Mode of Inhibition: Lineweaver-Burk plot, with respect to guaiacol; for Vmax: TPO in presence of inhibitor; for Vmax / Ki / IC50: n = 9; for IC50: porcine thyroid TPO, guaiacol assay, read-out: IC50 of TPO inhibition
T1 construct: The frozen thyroid gland was cut into slices and homogenized in a buffer containing 0.25 M sucrose; from tissue; host or cells: porcine thyroid gland (homogenate, centrifuged, salted-out to 60%)
T1 sequence (P09933 15-926): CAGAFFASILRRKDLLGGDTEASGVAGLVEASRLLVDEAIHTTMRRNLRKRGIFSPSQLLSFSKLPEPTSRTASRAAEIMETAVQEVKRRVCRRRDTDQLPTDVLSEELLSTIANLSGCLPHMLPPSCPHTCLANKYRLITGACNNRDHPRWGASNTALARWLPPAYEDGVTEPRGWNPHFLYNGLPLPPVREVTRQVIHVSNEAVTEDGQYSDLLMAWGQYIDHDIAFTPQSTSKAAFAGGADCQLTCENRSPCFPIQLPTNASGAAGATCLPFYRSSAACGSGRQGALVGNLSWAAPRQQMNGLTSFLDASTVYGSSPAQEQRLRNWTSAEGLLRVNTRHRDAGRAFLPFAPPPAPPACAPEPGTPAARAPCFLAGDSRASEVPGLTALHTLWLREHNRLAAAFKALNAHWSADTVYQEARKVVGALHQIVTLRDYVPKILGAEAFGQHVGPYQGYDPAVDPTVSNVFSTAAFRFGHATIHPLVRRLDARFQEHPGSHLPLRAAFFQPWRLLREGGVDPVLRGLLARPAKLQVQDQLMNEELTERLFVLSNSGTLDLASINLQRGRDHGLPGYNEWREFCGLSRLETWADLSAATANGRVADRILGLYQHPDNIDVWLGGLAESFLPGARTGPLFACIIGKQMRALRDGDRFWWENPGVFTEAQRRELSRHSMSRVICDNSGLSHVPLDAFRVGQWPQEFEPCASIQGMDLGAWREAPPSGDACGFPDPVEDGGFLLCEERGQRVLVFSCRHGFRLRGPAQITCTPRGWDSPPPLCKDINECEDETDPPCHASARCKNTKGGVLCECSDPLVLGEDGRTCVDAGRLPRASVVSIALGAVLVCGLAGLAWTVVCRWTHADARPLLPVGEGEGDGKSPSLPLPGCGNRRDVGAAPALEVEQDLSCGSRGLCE
Description: Porcine thyroid glands were obtained at a local slaughterhouse (Lublin, Poland) and stored in −20 °C until used.
The assay was prepared according to Jomaa with some modifications. The frozen thyroid gland was cut into slices and homogenized in a buffer containing 0.25 M sucrose, 2 mM Tris—HCl, 100 mM KCl, 40 mM NaCl, 10 mM MgCl2 (pH 7.4) with a Philips homogenizer. The thyroid gland was than centrifuged two times at 4000 RPM per 15 min in temperature +4 °C. The enzyme protein was then salted-out to 60%. The supernatant was used for further analysis and was stored in a −20 °C freezer.
The activity of the enzyme was assayed using a guaiacol assay. […] The reaction components were incubated in 37 °C before the assignment. […] The assay was conducted as follows: To a cuvette, 180 µL of buffer, 100 µL of guaiacol and 40 µL of TPO were mixed to the final volume of […]. The cuvette was then placed into the spectrophotometer and the reaction was started by the addition of 100 µL H2O2. Absorbance readings were recorded every minute for a total of 3 min. Verification of the TPO activity was accomplished by linearly correlating the TPO concentration with absorbance readings.
(§1) The assay was used according to Jomaa with some modification. The measurement was made using a plate spectrophotometer (BioTek, Model Epoch2TC, Winooski, Vermont, VT, USA) in 96–well plates at a wavelength of 470 nm. The assay was conducted as follows: 50 µl of buffer, 40 µl of pure substance solution, 50 µL of guaiacol, 20 µL of TPO enzyme and 50 µL H2O2. The total volume of the mixture was 210 µL. In the sample probe, extracts were replaced by the buffer. Absorbance readings were recorded every minute for a total of 3 min in 37^o. As a unit of TPO activity is defined as the change of absorbation per minute.
TPO inhibitory activity was calculated as follows: %inhibition=(1−ΔA/mintest/ΔAminblank)×100 Where: ΔA/min test is the linear absorbance change per minute of the test material and ΔA min blank is the linear change in absorbance per minute of the blank.
The IC50 value was determined by the interpolation of dose response curves. […] The mode of inhibition of the enzyme was performed using the Lineweaver–Burk plot.

thyroid peroxidase (TPO) [3] = target: T1, thyroid peroxidase (TPO); experiment: Effect of pure substance combinations on TPO activity (isobolographic analysis); format: biochemical, porcine; set-up: key to CI (Combination Index): CI <1 = synergy, =1 = addition, >1 = antagonism; conditions: TPO inhibition; for CI (Combination Index): n = 9
Description: as §1
Results (type and strength of interactions) can be shown on the isobolograms and described by the combination Index (CI). When CI is lower than one, indicates synergy; when CI is equal to one, indicates addition; when CI is higher than one, indicates antagonism. Isobolograms were performed according to Chou. […] Pure substances were mixed in various volume ratios: 1:4, 4:1, 3:2, 2:3, 1:1. All of the mixtures were made in combinations of two substances. The inhibitory assay was made using the same proportions as with single solutions.

TPO [4] = test system: TPO; set-up: method as in PMID 8924586; conditions: read-out: IC50 in relation to TPO; cited from earlier work
[5] = after meal containing 150 g fried onions (equivalent to 64 mg quercetin); cited from earlier work
TPO [6] = test system: TPO; set-up: method as in PMID 25822105; conditions: according to literature data ref 22; read-out: IC50 of TPO inhibition (positive controls); cited from earlier work
[7] = six weeks supplementation with rutin, volunteers; cited from earlier work
[8] = set-up: method as in doi:10.1039/C6RA28237G; conditions: rats, cited from earlier work
[9] = set-up: method as in PMID 25978046; conditions: Melissa officinalis extract containing 500 mg rosmarinic acid, fasted state; cited from earlier work
[10] = mixture with Chlorogenic Acid, listed as Rutin
[11] = mixture with Chlorogenic Acid, listed as Rosmarinic acid
[12] = mixture with Quercetin, listed as Rosmarinic acid

SMILES: O=c1c(O)c(-c2ccc(O)c(O)c2)oc2cc(O)cc(O)c12 [quercetin]
- IC50 [1]: 450 µM and 447 µM
- Mode of Inhibition (thyroid peroxidase (TPO) [2]): uncompetitive
- Vmax (thyroid peroxidase (TPO) [2]): 149.25 ± 4.35 a ΔAU/min
- Type of interaction (scale according to Chou) (thyroid peroxidase (TPO) [3]; mixture with Chlorogenic Acid): Antagonism
- Type of interaction (scale according to Chou) (thyroid peroxidase (TPO) [3]; mixture with Rosmarinic Acid): Moderate antagonism
- IC50 (TPO [4]): 2.4 µM
- human plasma concentration of quercetin [5]: about 0.65 umol/l

SMILES: Cn1cc[nH]c1=S [Methimazole]
- IC50 (TPO [6]): 10.7 µM

SMILES: C[C@@H]1O[C@@H](OC[C@H]2O[C@@H](Oc3c(-c4ccc(O)c(O)c4)oc4cc(O)cc(O)c4c3=O)[C@H](O)[C@@H](O)[C@@H]2O)[C@H](O)[C@H](O)[C@H]1O [rutin]
- IC50 [1]: 292 ± 10 µM
- Mode of Inhibition (thyroid peroxidase (TPO) [2]): competitive
- Vmax (thyroid peroxidase (TPO) [2]): 149.25 ± 5.01 a ΔAU/min
- Ki (thyroid peroxidase (TPO) [2]): 130 ± 3 µM
- Type of interaction (scale according to Chou) (thyroid peroxidase (TPO) [3]; mixture with Chlorogenic Acid): slight synergism; also recorded: synergistically
- CI (Combination Index) (thyroid peroxidase (TPO) [3]; mixture with Chlorogenic Acid): 0.88
- CI (Combination Index) (thyroid peroxidase (TPO) [3]; [10]): 0.88 ± 0.02
- Type of interaction (scale according to Chou) (thyroid peroxidase (TPO) [3]; [10]): Slight synergism
- Type of interaction (scale according to Chou) (thyroid peroxidase (TPO) [3]; mixture with Quercetin): additive interaction; also recorded: nearly additive
- CI (Combination Index) (thyroid peroxidase (TPO) [3]; mixture with Quercetin): 0.096 and 0.096 ± 0.05
- Type of interaction (scale according to Chou) (thyroid peroxidase (TPO) [3]; mixture with Quercetin, listed as Rutin): additively; also recorded: Nearly additive
- Type of interaction (scale according to Chou) (thyroid peroxidase (TPO) [3]; mixture with Rosmarinic Acid): additively; also recorded: additive interaction
- Type of interaction (scale according to Chou) (thyroid peroxidase (TPO) [3]; mixture with Rosmarinic Acid, listed as Rutin): Nearly additive
- IC50 (TPO [4]): 40.6 µM
- increase in plasma isorhamnetin [7]: 10 fold
- increase in plasma kaempferol [7]: 3 fold
- increase in plasma quercetin [7]: 2.5 fold

- IC50 [1]: 151 ± 6 µM
- Mode of Inhibition (thyroid peroxidase (TPO) [2]): competitive
- Vmax (thyroid peroxidase (TPO) [2]): 175.44 ± 7.01 b ΔAU/min
- Ki (thyroid peroxidase (TPO) [2]): 1 µM
- IC50 (thyroid peroxidase (TPO) [2]): 4 ± 0.14 µM
- Type of interaction (scale according to Chou) (thyroid peroxidase (TPO) [3]; mixture with Chlorogenic Acid): moderate antagonism
- CI (Combination Index) (thyroid peroxidase (TPO) [3]; mixture with Chlorogenic Acid): 1.25
- CI (Combination Index) (thyroid peroxidase (TPO) [3]; [11]): 1.25 ± 0.05
- Type of interaction (scale according to Chou) (thyroid peroxidase (TPO) [3]; [11]): Moderate antagonism
- CI (Combination Index) (thyroid peroxidase (TPO) [3]; mixture with Quercetin): 1.45
- CI (Combination Index) (thyroid peroxidase (TPO) [3]; [12]): 1.45 ± 0.03
- Type of interaction (scale according to Chou) (thyroid peroxidase (TPO) [3]; [12]): Moderate antagonism
- Type of interaction (scale according to Chou) (thyroid peroxidase (TPO) [3]; mixture with Rutin): nearly additive
- CI (Combination Index) (thyroid peroxidase (TPO) [3]; mixture with Rutin): 1.06 ± 0.05
- Type of interaction (scale according to Chou) (thyroid peroxidase (TPO) [3]; mixture with Rutin, listed as Rosmarinic acid): Nearly additive
SMILES: O=C(/C=C/c1ccc(O)c(O)c1)O[C@H](Cc1ccc(O)c(O)c1)C(=O)O [rosmarinic acid]
- Type of interaction (scale according to Chou) (thyroid peroxidase (TPO) [3]; mixture with Quercetin): moderate antagonism; also recorded: antagonistic interaction
- absolute bioavailability ([8]; oral 25 mg/kg): 1.28%
- absolute bioavailability ([8]; oral 50 mg/kg): 0.91%
- absolute bioavailability ([8]; oral […]): 1.69%
- maximum serum concentration [9]: 162.20 nM
- time of peak serum concentration of total rosmarinic acid [9]: 1 h

SMILES: CCCc1cc(=O)[nH]c(=S)[nH]1 [Propylthiouracil]
- IC50 (TPO [6]): 4 µM

- Mode of Inhibition (thyroid peroxidase (TPO) [2]): noncompetitive
- Vmax (thyroid peroxidase (TPO) [2]): 149.25 ± 5.97 a * ΔAU/min
- Ki (thyroid peroxidase (TPO) [2]): 170 ± 5 µM
- IC50 (thyroid peroxidase (TPO) [2]): 1440 ± 41 µM
- Type of interaction (scale according to Chou) (thyroid peroxidase (TPO) [3]; mixture with Quercetin, listed as Chlorogenic acid): Antagonism
- Type of interaction (scale according to Chou) (thyroid peroxidase (TPO) [3]; mixture with Rutin): Slight synergism
SMILES: O=C(/C=C/c1ccc(O)c(O)c1)O[C@@H]1C[C@](O)(C(=O)O)C[C@@H](O)[C@H]1O [chlorogenic acid]
- Type of interaction (scale according to Chou) (thyroid peroxidase (TPO) [3]; mixture with Quercetin): antagonism; also recorded: antagonistic interaction
- Type of interaction (scale according to Chou) (thyroid peroxidase (TPO) [3]; mixture with Rosmarinic Acid): antagonistic interaction; also recorded: Moderate antagonism

- IC50 [1]: 407 ± 14 µM
SMILES: Cc1c(C)c2c(c(C)c1O)CCC(C)(C(=O)O)O2 (centres unmarked) [Trolox, 6-hydroxy-2,5,7,8-tetramethylchroman-2-carboxylic acid, reference compound]
